Experimental data reported in US20260217983A1, “SULFONIUM SALT PHOTOINITIATORS AND METHODS OF LED CURING A COMPOSITION WITH SAID SULFONIUM SALT PHOTOINITIATORS” (ARKEMA FRANCE, priority 2022, published 2026).

Key:
[1] = Thermal stability by DSC in TMPTA resin; assay type: physicochemical; conditions: DSC at 10° C./min, loading 1 wt %
Description: (§1) Formulations comprising the photoinitiators and neat UViCure S105E resin and/or TMPTA resin were prepared as described at example 2.

[2] = Thermal stability by DSC in UViCure S105E resin; assay type: physicochemical; conditions: DSC at 10° C./min, loading 1 wt % (Omnicat BL550 4 wt %; Speedcure 938/CPTX 1/0.5 wt %)
[3] = Belt curing performance (thumb-twist depth cure) in UViCure S105E resin; conditions: 24 μm film, under air, PI 2 wt %
Description: (§2) The photoinitiators were dissolved either in neat UViCure S105E resin or a hybrid acrylate/epoxy resin (prepared by mixing 60 wt parts UViCure S105E, 15 wt parts UViCure S130 and 25 wt parts SR492; all product are available from Sartomer). Formulations were prepared by combining all materials in the given proportions and then stirring at 30-40° C. until the samples were fully homogeneous; the formulations were then allowed to cool to room temperature. For all experiments, the formulations were cured on Leneta Form 3N-31 gloss finish paper at 6 μm and 24 μm film thickness using a belt-cure instrument; the films were prepared using a K-bar. All films were then cured under an LED lamp at a given belt speed. ‘Depth cure’ for each formulation was assessed using the ‘thumb-twist’ test (where no visible mark is made when a thumb is pressed down firmly onto the coating with a twisting motion), and from the belt speed; the calculated cure speed (in m/min) is given.

[4] = Colour index 'b' of formulations before and after polymerization; assay type: physicochemical; conditions: UViCure S105E, thin samples (20 μm), under air, 300 s irradiation
Description: The low yellowing characteristics can be measured by the Colour index ‘b’ value on cured films.
Formulations comprising the photoinitiators and neat UViCure S105E resin were prepared as described at example 2.

[5] = Transmittance at 0.01% w/v in propylene carbonate; assay type: physicochemical
Description: The samples were prepared at 0.01% w/v in propylene carbonate.

[6] = Belt curing performance (thumb-twist depth cure) in hybrid acrylate/epoxy resin; conditions: for Cure speed in hybrid acrylate/epoxy resin: 24 μm film, under air, PI 2 wt %
Description: as §2

[7] = FTIR-ATR cure test of cationic formulations (epoxide, oxetane conversion, 1100 cm^-1 peak growth); conditions: 405 nm, cationic systems
Description: Matrixes: In a 1000 mL of metal can, formulation matrix was charged according to the percentage in Table 12. The 1000-1005 g mixture of each matrix sample was prepared and mixed by mechanical mixer for about 1 hour around 60° C. until the solution became clear. Formulations: In a white max 50 jar from FlackTek Inc., photoinitiator and propylene carbonate were loaded at first, mixed by hand with stainless steel spatula, placed in 60° C. oven for about 1 h, mixed again until it became clear. Then, formulation matrix was charged according to the percentage in one of Table 13 to 21. The […]-52.60 g mixture of each sample was prepared and mixed for 3 minutes at 3000 RPM in Speed Mixer from FleackTec Inc. Then, all jars were placed in 60° C. oven for about 2 h, taken out and immediately mixed for another 2 minutes until the solution became clear.
A Fourier Transform Infrared (FTIR) with an Attenuated Total Reflection (ATR) setup was used. All polymerization rate measurements were performed using Nicolet iS50 FT-IR Spectrometer from Thermo Scientific, equipped with a standard DLaTGS detector. A lamp holder for the ART platform of FTIR unit can be customized and printed from Arkema N3xtDimention® engineered resin N3D-TOUGH784 in order to ensure precisely fit of a 365 nm lamp Accucure ULM-2-365 or a 405 nm lamp Accucure ULM-2-405 from Digital Light Labs. On the bottom of this lamp holder, a dry air channel is built in to allow air uniformly blowing over sample surface, the gas flow rate can be controlled over a rotameter. The LED light was manually triggered by Ultraviolet illumination & Measurement System. LED light exposure can be programed by AccuCure software. For measurement, 25 μL of liquid sample was placed in the center of an ATR crystal. 3 mil of thin film was prepared by a customized coating applicator (3 mil WFM, G1046 from BYK). The LED lamp with holder was place on the top of ART platform. Then FTIR scan was initiated to collect liquid IR spectrum at first. Each IR spectrum of a specific exposure time at 10 mW/cm^2 of LED light were collected. Measurements of acrylate conversion were taken at the peak height under the reference peak around 1727 cm^−1; the acrylate peak of SR833S at approximately 1407 cm^−1, the epoxide peak of UviCure S105 at approximately 790 cm^−1, and the oxetane peak of UViCure S130 at approximately 970 cm^−1 were also measured. Since the ring opening of both epoxide and oxetane generated C—O—C bond, the growth of C—O—C IR peak height at ~1100 cm^−1 was monitored as well. The resulting of peak 1100 cm^−1 growth rate could be calculated to assess total cationic cure speed. Peak heights were determined using the same baseline where a baseline is chosen to be the two lowest points between 600 cm^−1 and 1800 cm^−1. The peak height under the peak and above the baseline was then determined. The integration limits for liquid and the cured sample are not identical but are similar, especially for the reference peak.
The ratios of the acrylate peak height, epoxide peak height, ring opening peak height from both epoxide and oxetane to the reference peak height were determined for both the liquid and the cured samples. Degree of cure or conversion or peak growth rate, expressed as percentage reacted acrylate or epoxide or ring opening of both epoxide and oxetane, was calculated from the equation below: […]
Where Rliq is the peak height ratio of the liquid sample and Rc is the peak height ratio of the LED cured sample. The resulting acrylate and epoxide conversions or C—O—C growth rates were collected and listed in Tables 13 to 21, plotted in FIG. 1 to 8 and FIG. 10.

[8] = Thermal stability by DSC in TMPTA/UViCure S105E (1:1) hybrid resin; assay type: physicochemical; conditions: DSC at 10° C./min, loading 1 wt %
Description: as §1

[9] = UV Vis spectra measurement; assay type: physicochemical; conditions: order 5>1>2 (comp.) ~4 (comp.); 10 ppm in acetonitrile
Source text: UV-Vis spectrum of each sample was taken with a Shimadzu UV1800 spectrophotometer using a 1.0 cm path of cuvette quartz cell in accordance with ASTM E169-04, and scanning the spectrum over the wavelength range of 450 to 200 nm.

[10] = LED 365 nm, 100% intensity (=70.1 mJ/cm^2), belt speed 40 m/min
[11] = LED 395 nm, 40 m/min, 100% intensity (=164.5 mJ/cm^2)
[12] = LED 395 nm, 80 m/min, 50% intensity (=36.9 mJ/cm^2)

Structure (SMILES)	onset temperature of thermal polymerisation [1]	onset temperature of thermal polymerisation [2]	Cure speed in UViCure S105E resin [3, 10]	Cure speed in UViCure S105E resin [3, 11]	Colour index ‘b’ value After Polymerization ([4]; LED @365 nm (120 mW/cm^2))	Colour index ‘b’ value Before Polymerization ([4]; LED @365 nm (120 mW/cm^2))	Colour index ‘b’ value After Polymerization ([4]; LED @385 nm (160 mW/cm^2))	Colour index ‘b’ value Before Polymerization ([4]; LED @385 nm (160 mW/cm^2))	% Transmittance at 355 nm [5]	% Transmittance at 420 nm [5]	Cure speed in hybrid acrylate/epoxy resin [6, 10]	Cure speed in hybrid acrylate/epoxy resin [6, 12]	cationic cure compared with 2 (comp.) or 4 (comp.) [7]	epoxide, oxetane and total cationic cure compared with Omnicat550 and SC992 [7]	onset temperature of thermal polymerisation [8]	UV absorption at 405 nm [9]	belt cure speed compared with photoinitiator 1 ([6]; at 80 m/min in hybrid acrylate/epoxy resin at both 365 nm and 395 nm)
CC(C)c1ccc2sc3ccc(-[s+]4c5ccccc5c(=O)c5cc(C(C)C)ccc54)cc3c(=O)c2c1 (stereo not drawn) [Photoinitiator 1, 9-oxo-10-[9-oxo-7-(propan-2-yl)-9H-thioxanthen-2-yl]-2-(propan-2-yl)-9H-thioxanthen-10-ium hexafluorophosphate]	150 °C	~220° ° C.	12.2 m/min	20.0 m/min	8.81	6.38	8.71	6.13	8.0%	90.3%	20.0 m/min	40.0 m/min	performed slightly better than 2 (comp.) or 4 (comp.)	better epoxide cure, oxetane cure as well as total cationic cure than both Omnicat550 and SC992	133 °C	much higher than Omnicat 550 and SC 992S	
Cc1ccc([S+](c2ccc(C(=O)c3ccccc3)cc2)c2ccc3sc4ccc(C(C)C)cc4c(=O)c3c2)cc1 (stereo not drawn) [Photoinitiator 2, (4-benzoylphenyl)(4-methylphenyl)[9-oxo-7-(propan-2-yl)-9H-thioxanthen-2-yl]sulfonium Hexafluorophosphate]	170 °C	~240° ° C.	4.6 m/min	10.0 m/min	6.31	6.48	6.26	6.49	19.7%	94.3%	11.1 m/min	16.4 m/min		better epoxide cure, oxetane cure as well as total cationic cure than both Omnicat550 and SC992	117 °C	much higher than Omnicat 550 and SC 992S	
CCc1cc(CC)c2sc3ccc([S+](c4ccc(C)cc4)c4ccc(C(=O)c5ccccc5)cc4)cc3c(=O)c2c1 (stereo not drawn) [Photoinitiator 4, (4-benzoylphenyl)(5,7-diethyl-9-oxo-9H-thioxanthen-2-yl)(4-methylphenyl)sulfonium Hexafluorophosphate]			3.7 m/min	5.2 m/min	6.05	6.33	6.09	6.28	6.8%	83.3%	17.8 m/min	15.1 m/min		better epoxide cure, oxetane cure as well as total cationic cure than both Omnicat550 and SC992		much higher than Omnicat 550 and SC 992S	
CCCOc1ccc(Cl)c2c(=O)c3cc(-[s+]4c5ccccc5c(=O)c5c(Cl)ccc(OCCC)c54)ccc3sc12 (stereo not drawn) [Photoinitiator 5, 1-chloro-10-(8-chloro-9-oxo-5-propoxy-9H-thioxanthen-2-yl)-9-oxo-4-propoxy-9H-thioxanthen-10-ium Hexafluorophosphate]	165 °C	~214° ° C.	13.3 m/min	13.3 m/min	4.92	5.02	4.91	5.35	0.8%	64.8%	40.0 m/min	80.0 m/min	performed slightly better than 2 (comp.) or 4 (comp.)	better epoxide cure, oxetane cure as well as total cationic cure than both Omnicat550 and SC992	120 °C	much higher than Omnicat 550 and SC 992S	superior cure speed
